This passage reports Ki results from patent US12459974B2, “Bicyclic peptide ligands specific for Nectin-4” (priority 2018, dated 2025).

*1 amine or outer side, *2 acyl side, *3 side chain or, on linkers, in order; H or OH if unused. Where a SMILES comes first, the peptide text is derived from it. Bridges are numbered along the chain shown (N, C = ends). [ ]: non-standard residue; d: D form. TATA = O=C(CC[*:1])N1CN(C(=O)CC[*:2])CN(C(=O)CC[*:3])C1; Pip = O=C(O)[C@@H]1CCCCN1

For the first assay, the target named is T1, human Nectin-4 (Homo sapiens, UniProt Q96NY8).
T1 sequence (Q96NY8 32-510): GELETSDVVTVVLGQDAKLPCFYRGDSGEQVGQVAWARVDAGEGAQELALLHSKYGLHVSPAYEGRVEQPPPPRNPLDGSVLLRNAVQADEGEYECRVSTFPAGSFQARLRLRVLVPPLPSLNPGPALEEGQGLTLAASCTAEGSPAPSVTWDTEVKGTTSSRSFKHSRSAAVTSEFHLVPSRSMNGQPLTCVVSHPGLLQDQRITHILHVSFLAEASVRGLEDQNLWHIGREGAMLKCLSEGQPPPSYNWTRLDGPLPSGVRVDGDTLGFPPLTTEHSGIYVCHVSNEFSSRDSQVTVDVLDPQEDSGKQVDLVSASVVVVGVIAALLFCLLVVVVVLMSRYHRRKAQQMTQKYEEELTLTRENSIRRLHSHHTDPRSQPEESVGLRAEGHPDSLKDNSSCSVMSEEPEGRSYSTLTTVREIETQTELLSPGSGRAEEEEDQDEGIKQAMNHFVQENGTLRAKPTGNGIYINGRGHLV
Kind of assay: Nectin-4 competition binding assay (fluorescence polarisation).
Conditions: not given
As for the experimental part: Peptides were diluted to an appropriate concentration in assay buffer as described in the direct binding assay with a maximum of 5% DMSO, then serially diluted 1 in 2. Five μL of diluted peptide was added to the plate followed by 10 μL of human Nectin-4, then 10 μL fluorescent peptide added. Measurements were conducted as for the direct binding assay, however the gain was determined prior to the first measurement. Data analysis was in Systat Sigmaplot version 12.0 where the mP values were fit to a user defined cubic equation to generate a Ki value: • f=ymin+(ymax−ymin)/Lig*((Lig*((2*((Klig+Kcomp+Lig+Comp-Prot*c)^2-3*(Kcomp*(Lig-Prot*c)+Klig*(Comp-Prot*c)+Klig*Kcomp))^0.5*COS(ARCCOS((−2*(Klig+Kcomp+Lig+Comp-Prot*c)^3+9*(Klig+Kcomp+Lig+Comp-Prot*c)*(Kcomp*(Lig-Prot*c)+Klig*(Comp-Prot*c)+Klig*Kcomp)−27*(−1*Klig*Kcomp*Prot*c)/(2*((((Klig+Kcomp+Lig+Comp-Prot*c)^2−3*(Kcomp*(Lig-Prot*c)+Klig*(Comp-Prot*c)+Klig*Kcomp))^3)^0.5)))/3))−(Klig+Kcomp+Lig+Comp-Prot*c)))/((3*Klig)+((2*((Klig+Kcomp+Lig+Comp-Prot*c)^2−3*(Kcomp*(Lig-Prot*c)+Klig*(Comp-Prot*c)+Klig*Kcomp))^0.5*COS (ARCCOS ((−2*(Klig+Kcomp+Lig+Comp-Prot*c)^3+9*(Klig+Kcomp+Lig+Comp-Prot*c)*(Kcomp*(Lig-Prot*c)+Klig*(Comp-Prot*c)+Klig*Kcomp)-27*(−1*Klig*Kcomp*Prot*c))/(2*((((Klig+Kcomp+Lig+Comp-Prot*c)^2-3*(Kcomp*(Lig-Prot*c)+Klig*(Comp-Prot+c)+Klig*Kcomp))^3)^0.5))/3)−(Klig+Kcomp+Lig+Comp-Prot*c)))).
“Lig”, “KLig” and “Prot” were all defined values relating to: fluorescent peptide concentration, the Kd of the fluorescent peptide and Nectin concentration respectively.
(In general: In fluorescence polarisation assays a small probe gives low polarisation when free and higher when bound to something large.)
`CC[C@H](C)[C@@H]1NC(=O)[C@@H]2CCCN2C(=O)[C@H](Cc2c[nH]c3ccccc23)NC(=O)[C@H](CO)NC(=O)[C@H](Cc2c[nH]c3ccccc23)NC(=O)CNC(=O)[C@H](CCCNC(=N)N)NC(=O)[C@H](CCSC)NC(=O)[C@@H]2CSCCC(=O)N3CN(CN(C3)C(=O)CCSC[C@H](NC(=O)[C@H](C)NC(=O)[C@@H](NC(=O)[C@@H](N)CC(=O)O)[C@@H](C)O)C(=O)N3CCC[C@H]3C(=O)N[C@@H](Cc3ccccc3)C(=O)NCC(=O)N2)C(=O)CCSC[C@@H](C(=O)N[C@@H](C)C(N)=O)NC(=O)[C@H](Cc2c[nH]c3ccccc23)NC1=O` [BCY3388, DTA-(SEQ ID NO: 46)-A] (H-DTACPFGCMRGWSWPIWCA-NH2; linker 4-8-18 via TATA) registered a Ki of 129 nM.

Still in this assay, the particulars now being: competition with fluorescent peptide SEQ ID NO: 217; read-out: Ki.
`CC[C@H](C)[C@@H]1NC(=O)[C@H](CCCNC(=N)N)NC(=O)[C@H](CC(N)=O)NC(=O)[C@@H]2CSCCC(=O)N3CN(CN(C3)C(=O)CCSC[C@H](NC(=O)[C@H](C)NC(=O)[C@H](CCCCN)NC(=O)[C@H](CCC(N)=O)NC(C)=O)C(=O)N[C@@H](C)C(=O)N3CCC[C@H]3C(=O)N[C@@H](CC(C)C)C(=O)N[C@@H](CO)C(=O)N[C@@H](CC(=O)O)C(=O)N[C@@H](Cc3ccc(O)cc3)C(=O)N[C@@H](Cc3c[nH]c4ccccc34)C(=O)N2)C(=O)CCSC[C@@H](C(N)=O)NC1=O` [BCY7624, Ac-QKA-(SEQ ID NO: 34)] (Ac-QKACAPLSDYWCNRIC-NH2; linker 4-12-16 via TATA; C-terminus assumed): the inhibition constant Ki came out at 571 nM.

In the case of `CC[C@H](C)[C@@H]1NC(=O)[C@@H]2CCCCN2C(=O)[C@H](Cc2c[nH]c3ccccc23)NC(=O)[C@H](CO)NC(=O)[C@H](Cc2c[nH]c3ccccc23)NC(=O)[C@H](CC(N)=O)NC(=O)[C@H](CCCCN)NC(=O)[C@H](CCSC)NC(=O)[C@@H]2CSCCC(=O)N3CN(CN(C3)C(=O)CCSC[C@H](NC(C)=O)C(=O)N3CCC[C@H]3C(=O)N[C@@H](Cc3ccccc3)C(=O)NCC(=O)N2)C(=O)CCSC[C@@H](C(N)=O)NC(=O)[C@H](Cc2c[nH]c3ccccc23)NC1=O` [BCY7595, Ac-(SEQ ID NO: 90)] (Ac-CPFGCMKNWSW[Pip]IWC-NH2; linker 1-5-15 via TATA), the Ki is 219 nM. As for `CC[C@H](C)[C@@H]1NC(=O)[C@@H]2CCCN2C(=O)[C@H](Cc2c[nH]c3ccccc23)NC(=O)[C@H](CO)NC(=O)[C@H](Cc2c[nH]c3ccccc23)NC(=O)[C@H](Cc2c[nH]cn2)NC(=O)[C@H](CCCCN)NC(=O)[C@H](CCSC)NC(=O)[C@@H]2CSCCC(=O)N3CN(CN(C3)C(=O)CCSC[C@H](NC(C)=O)C(=O)N3CCC[C@H]3C(=O)N[C@@H](Cc3ccccc3)C(=O)NCC(=O)N2)C(=O)CCSC[C@@H](C(N)=O)NC(=O)[C@H](Cc2c[nH]c3ccccc23)NC1=O` [BCY7662, Ac-(SEQ ID NO: 16)] (Ac-CPFGCMKHWSWPIWC-NH2; linker 1-5-15 via TATA; C-terminus assumed), the Ki worked out at 14.8 nM. As for `CC[C@H](C)[C@@H]1NC(=O)[C@@H]2CCCN2C(=O)[C@H]([C@@H](C)O)NC(=O)[C@H](CO)NC(=O)[C@H](Cc2c[nH]c3ccccc23)NC(=O)[C@H](CC(N)=O)N(C)C(=O)[C@H](CCCCNC(=N)N)NC(=O)[C@H](CCSC)NC(=O)[C@@H]2CSCCC(=O)N3CN(CN(C3)C(=O)CCSC[C@H](NC(C)=O)C(=O)N3CCC[C@H]3C(=O)N[C@@H](Cc3ccccc3)C(=O)N[C@H](CC(=O)O)C(=O)N2)C(=O)CCSC[C@@H](C(N)=O)NC(=O)[C@H](Cc2c[nH]c3ccccc23)NC1=O` [BCY8154, Ac-(SEQ ID NO: 174)], the Ki stood at 8 nM. For `CC[C@H](C)[C@@H]1NC(=O)[C@H](CCCNC(=N)N)NC(=O)[C@H](CC(N)=O)NC(=O)[C@@H]2CSCCC(=O)N3CN(CN(C3)C(=O)CCSC[C@H](NC(=O)[C@H](Cc3c[nH]c4ccccc34)NC(=O)[C@H](CCCCN)NC(=O)[C@H](C)NC(C)=O)C(=O)N[C@@H](C)C(=O)N3CCC[C@H]3C(=O)N[C@@H](CC(C)C)C(=O)N[C@@H](CO)C(=O)N[C@@H](CC(=O)O)C(=O)N[C@@H](Cc3ccc(O)cc3)C(=O)N[C@@H](Cc3c[nH]c4ccccc34)C(=O)N2)C(=O)CCSC[C@@H](C(N)=O)NC1=O` [BCY7622, Ac-AKW-(SEQ ID NO: 34)] (Ac-AKWCAPLSDYWCNRIC-NH2; linker 4-12-16 via TATA; C-terminus assumed), the Ki was found to be 31 nM.

For the compound `CC[C@H](C)[C@@H]1NC(=O)[C@@H]2CCCN2C(=O)[C@H](Cc2c[nH]c3ccccc23)NC(=O)[C@H](CO)NC(=O)[C@H](Cc2c[nH]c3ccccc23)NC(=O)[C@H](CC(N)=O)NC(=O)[C@H](CCCNC(=N)N)NC(=O)[C@H](CCSC)NC(=O)[C@@H]2CSCCC(=O)N3CN(CN(C3)C(=O)CCSC[C@H](NC(=O)[C@H](C)N)C(=O)N3CCC[C@H]3C(=O)N[C@@H](Cc3ccccc3)C(=O)NCC(=O)N2)C(=O)CCSC[C@@H](C(=O)N[C@@H](C)C(N)=O)NC(=O)[C@H](Cc2c[nH]c3ccccc23)NC1=O` [BCY429, A-(SEQ ID NO: 2)-A] (H-ACPFGCMRNWSWPIWCA-NH2; linker 2-6-16 via TATA; N-terminus and C-terminus assumed), the Ki was found to be 42.6 nM.

In the case of `CSCC[C@@H]1NC(=O)[C@@H]2CSCCC(=O)N3CN(CN(C3)C(=O)CCSC[C@H](NC(C)=O)C(=O)N3CCC[C@H]3C(=O)N[C@@H](Cc3cccc4ccccc34)C(=O)N[C@H](CCCNC(=N)N)C(=O)N2)C(=O)CCSC[C@@H](C(N)=O)NC(=O)[C@H](Cc2c[nH]c3ccccc23)NC(=O)[C@@H]2C[C@@H](O)CN2C(=O)[C@@H]2CCCN2C(=O)[C@H]([C@@H](C)O)NC(=O)[C@H](CCO)NC(=O)[C@H](Cc2c[nH]c3ccccc23)NC(=O)[C@H](CC(=O)O)NC(=O)[C@H](CCCCNC(=N)N)NC1=O` [BCY8188, Ac-(SEQ ID NO: 193)], the Ki was 20 nM. Regarding `CC[C@H](C)[C@@H]1NC(=O)[C@@H]2CCCN2C(=O)[C@H](Cc2c[nH]c3ccccc23)NC(=O)[C@H](CO)NC(=O)[C@H](Cc2c[nH]c3ccccc23)NC(=O)[C@H]([C@@H](C)O)NC(=O)[C@H](CCC(=O)O)NC(=O)[C@H](CCSC)NC(=O)[C@@H]2CSCCC(=O)N3CN(CN(C3)C(=O)CCSC[C@H](NC(=O)[C@H](C)NC(=O)[C@H](CC(=O)O)NC(=O)[C@@H](N)CC(=O)O)C(=O)N3CCC[C@H]3C(=O)N[C@@H](Cc3ccccc3)C(=O)NCC(=O)N2)C(=O)CCSC[C@@H](C(=O)N[C@@H](C)C(N)=O)NC(=O)[C@H](Cc2c[nH]c3ccccc23)NC1=O` [BCY3386, DDA-(SEQ ID NO: 45)-A] (H-DDACPFGCMETWSWPIWCA-NH2; linker 4-8-18 via TATA; N-terminus and C-terminus assumed), the inhibition constant Ki worked out at 80.2 nM. As for `CC[C@H](C)[C@@H]1NC(=O)[C@H](CCCNC(=N)N)NC(=O)[C@@H]2CCCN2C(=O)[C@@H]2CSCCC(=O)N3CN(CN(C3)C(=O)CCSC[C@@H](C(=O)N3CCC[C@H]3C(=O)N[C@@H](CCC(N)=O)C(=O)N[C@@H](C)C(N)=O)NC1=O)C(=O)CCSC[C@H](NC(=O)[C@H](C)N)C(=O)N[C@@H](Cc1c[nH]c3ccccc13)C(=O)N1CCC[C@H]1C(=O)N[C@@H](CC(C)C)C(=O)N[C@@H](CC(=O)O)C(=O)N[C@@H](CC(=O)O)C(=O)N[C@@H](Cc1ccc(O)cc1)C(=O)N[C@@H](Cc1c[nH]c3ccccc13)C(=O)N2` [BCY3401, A-(SEQ ID NO: 58)-PQA] (H-ACWPLDDYWCPRICPQA-NH2; linker 2-10-14 via TATA; N-terminus and C-terminus assumed), the Ki stood at 154 nM. Take `CC[C@H](C)[C@@H]1NC(=O)[C@@H]2CCCN2C(=O)[C@H](Cc2c[nH]c3ccccc23)NC(=O)[C@H](CO)NC(=O)[C@H](Cc2c[nH]c3ccccc23)NC(=O)[C@H](CC(N)=O)NC(=O)[C@@H]2CCCN2C(=O)[C@H](CCSC)NC(=O)[C@@H]2CSCCC(=O)N3CN(CN(C3)C(=O)CCSC[C@H](NC(C)=O)C(=O)N3CCC[C@H]3C(=O)N[C@@H](Cc3ccccc3)C(=O)NCC(=O)N2)C(=O)CCSC[C@@H](C(N)=O)NC(=O)[C@H](Cc2c[nH]c3ccccc23)NC1=O` [BCY7614, Ac-(SEQ ID NO: 99)] (Ac-CPFGCMPNWSWPIWC-NH2; linker 1-5-15 via TATA; C-terminus assumed): the Ki stood at 21 nM.

Usually Ki stands for the dissociation constant of the complex between target and ligand, obtained from inhibition or displacement.
